For this assay, the target named is T1, KRAS G12C 1-169, his-tagged protein, GDP-loaded (Homo sapiens, UniProt P01116, G12C).
T1 construct: KRAS G12C 1-169, his-tagged protein, GDP-loaded; His tag
Put plainly: Biochemical assay: covalent modification of KRAS G12C, analysed by mass spectrometry (RapidFire/TOF or Q-Exactive). Also: time not given here. Conditions: Modification activity, modification percentage from MS peak intensities. The class given is binding. The gist of the method: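 Covalent adduct formation was quantified by intact-protein mass spectrometry, either TOF or C4 LC-Q Exactive Plus, as percent modified versus unmodified protein after deconvolution. Compounds at 8 or 32 μM final were incubated with 0.5 or 2 μM GDP-bound KRAS G12C(1-169)-His in Hepes/NaCl/MgCl2 buffer before acid quench.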
For the compound `C=CC(=O)N1CC2(CCN(c3c(OC[C@@H]4CCCN4C)ncc(-c4c(C)ccc5[nH]ncc45)c3C#N)C2)C1` [Compound I-199, 3-(2-acryloyl-2,6-diazaspiro[3.4]octan-6-yl)-5-(5-methyl-1H-indazol-4-yl)-2-(((S)-1-methylpyrrolidin-2-yl)methoxy)isonicoti-nonitrile], the Binding % result was “++ (++ indicates binding activity from 50 to 85%)”.

With `Cc1ccc2[nH]ncc2c1-c1nc(N2CCOCC2)nc(N2CCC3(CN(C(=O)/C=C/CN4CCC4)C3)C2)c1C#N` [Compound I-200, (E)-4-(2-(4-(azetidin-1-yl)but-2-enoyl)-2,6-diazaspiro[3.4]octan-6-yl)-6-(5-methyl-1H-indazol-4-yl)-2-morpholinopyrimidine-5-carbonitrile], the Binding % entry is reported as “++ (++ indicates binding activity from 50 to 85%)”.

As for `C=CC(=O)N1CC2(CCN(c3nc(C(=O)N4CCOCC4)nc(-c4c(C)ccc5[nH]ncc45)c3C#N)C2)C1` [Compound I-201, 4-(2-acryloyl-2,6-diazaspiro[3.4]octan-6-yl)-6-(5-methyl-1H-indazol-4-yl)-2-(morpholine-4-carbonyl)pyrimidine-5-carbonitrile], the Binding % result is “+ (+ indicates binding activity greater than 0% and up to 50%)”.

As for `C=CC(=O)N1CC2(CCN(c3nc(C(N)=O)nc(-c4c(C)ccc5[nH]ncc45)c3C#N)C2)C1` [Compound I-202, 4-(2-acryloyl-2,6-diazaspiro[3.4]octan-6-yl)-5-cyano-6-(5-methyl-1H-indazol-4-yl)pyrimidine-2-carboxamide], the Binding % result was “+ (+ indicates binding activity greater than 0% and up to 50%)”.

Take `C=CC(=O)N1CC2(CCN(c3nc(C(=O)N4CCN(C)CC4)nc(-c4c(C)ccc5[nH]ncc45)c3C#N)C2)C1` [Compound I-203, 4-(2-acryloyl-2,6-diazaspiro[3.4]octan-6-yl)-6-(5-methyl-1H-indazol-4-yl)-2-(4-methylpiperazine-1-carbonyl)pyrimidine-5-carbonitrile]: the Binding % result is “+ (+ indicates binding activity greater than 0% and up to 50%)”.

For the compound `Cc1ccc2[nH]ncc2c1-c1nc(OC[C@@H]2CCCN2C)nc(N2CCC3(CN(C(=O)/C=C/CN(C)C)C3)C2)c1C#N` [Compound I-204, 4-(2-((E)-4-(dimethylamino)but-2-enoyl)-2,6-diazaspiro[3.4]octan-6-yl)-6-(5-methyl-1H-indazol-4-yl)-2-(((S)-1-methylpyrrolidin-2-yl)methoxy)pyrimidine-5-carbonitrile], the Binding % entry was “+ (+ indicates binding activity greater than 0% and up to 50%)”.

For `Cc1ccc2[nH]ncc2c1-c1nc(OC[C@@H]2CCCN2C)nc(N2CCC3(CN(C(=O)/C=C/CN4CCC4)C3)C2)c1C#N` [Compound I-205, 4-(2-((E)-4-(azetidin-1-yl)but-2-enoyl)-2,6-diazaspiro[3.4]octan-6-yl)-6-(5-methyl-1H-indazol-4-yl)-2-(((S)-1-methylpyrrolidin-2-yl)methoxy)pyrimidine-5-carbonitrile], the Binding % entry is “+ (+ indicates binding activity greater than 0% and up to 50%)”.

With `C=CC(=O)N1CC2(CCN(c3nc(N4CCOCC4)nc(-c4c(C)ccc5[nH]nc(C6CC6)c45)c3C#N)C2)C1` [Compound I-206, 4-(2-acryloyl-2,6-diazaspiro[3.4]octan-6-yl)-6-(3-cyclopropyl-5-methyl-1H-indazol-4-yl)-2-morpholinopyrimidine-5-carbonitrile], the Binding % entry was “+ (+ indicates binding activity greater than 0% and up to 50%)”.

As to `C=CC(=O)N1CC2(CCN(c3cnc(-c4ccccc4)c(-c4c(C)ccc5[nH]ncc45)c3C#N)C2)C1` [Compound I-207, 5-(2-acryloyl-2,6-diazaspiro[3.4]octan-6-yl)-3-(5-methyl-1H-indazol-4-yl)-2-phenylisonicotinonitrile], the Binding % result is “++ (++ indicates binding activity from 50 to 85%)”.

With `C=CC(=O)N1CC2(CCN(c3cnc(-c4ccccc4)c(-c4c(C)ccc5cnn(C)c45)c3C#N)C2)C1` [Compound I-208, 5-(2-acryloyl-2,6-diazaspiro[3.4]octan-6-yl)-3-(1,6-dimethyl-1H-indazol-7-yl)-2-phenylisonicotinonitrile], the Binding % result is “+ (+ indicates binding activity greater than 0% and up to 50%)”.

As to `C=CC(=O)N1CC2(CCN(c3nc(N4CCC[C@@H]4CO)nc(-c4c(C)ccc5[nH]ncc45)c3C#N)C2)C1` [Compound I-209, 4-(2-acryloyl-2,6-diazaspiro[3.4]octan-6-yl)-2-((R)-2-(hydroxymethyl)pyrro-lidin-1-yl)-6-(5-methyl-1H-indazol-4-yl)pyrimidine-5-carbonitrile], the Binding % result is on record as “++ (++ indicates binding activity from 50 to 85%)”.

Take `C=CC(=O)N1CC2(CCN(c3nc(N4CCC[C@H]4CO)nc(-c4c(C)ccc5[nH]ncc45)c3C#N)C2)C1` [Compound I-210, 4-(2-acryloyl-2,6-diazaspiro[3.4]octan-6-yl)-2-((S)-2-(hydroxymethyl)pyrro-lidin-1-yl)-6-(5-methyl-1H-indazol-4-yl)pyrimidin-5-carbonitrile]: the Binding % result was “+ (+ indicates binding activity greater than 0% and up to 50%)”.

As for `C=CC(=O)N1CC2(CCN(c3nc(N4CCC[C@H](CO)C4)nc(-c4c(C)ccc5[nH]ncc45)c3C#N)C2)C1` [Compound I-211, 4-(2-acryloyl-2,6-diazaspiro[3.4]octan-6-yl)-2-((S)-3-(hydroxymethyl)piperi-din-1-yl)-6-(5-methyl-1H-indazol-4-yl)pyrimidine-5-carbonitrile], the Binding % entry is on record as “++ (++ indicates binding activity from 50 to 85%)”.

Turning to `C=CC(=O)N1CC2(CCN(c3nc(N4CCC[C@@H](CO)C4)nc(-c4c(C)ccc5[nH]ncc45)c3C#N)C2)C1` [Compound I-212, 4-(2-acryloyl-2,6-diazaspiro[3.4]octan-6-yl)-2-((R)-3-(hydroxymethyl)piper-idin-1-yl)-6-(5-methyl-1H-indazol-4-yl)pyrimidine-5-carbontrile], the Binding % result was “++ (++ indicates binding activity from 50 to 85%)”.

Turning to `C=CC(=O)N1CC2(CCN(c3nc(N4CCC(CN(C)C)CC4)nc(-c4c(C)ccc5[nH]ncc45)c3C#N)C2)C1` [Compound I-213, 4-(2-acryloyl-2,6-diazaspiro[3.4]octan-6-yl)-2-(4-((dimethylamino)meth-yl)piperidin-1-yl)-6-(5-methyl-1H-indazol-4-yl)pyrimidine-5-carbontrile], the Binding % result is listed as “+++ (+++ indicates binding activity greater than 85%)”.

Take `C=CC(=O)N1CC2(CCN(c3cnc(Oc4ccccc4)c(-c4c(C)ccc5[nH]ncc45)c3C#N)C2)C1` [Compound I-214, 5-(2-acryloyl-2,6-diazaspiro[3.4]octan-6-yl)-3-(5-methyl-1H-indazol-4-yl)-2-phenoxyisonicotinoni-trile]: the Binding % result was “++ (++ indicates binding activity from 50 to 85%)”.

As to `C=CC(=O)N1CC2(CCN(c3cnc(Oc4ccccc4)c(-c4c(C)ccc5cnn(C)c45)c3C#N)C2)C1` [Compound I-215, 5-(2-acryloyl-2,6-diazaspiro[3.4]octan-6-yl)-3-(1,6-dimethyl-1H-indazol-7-yl)-2-phenoxyisonicotinoni-trile], the Binding % entry was “++ (++ indicates binding activity from 50 to 85%)”.

As to `C=CC(=O)N1CC2(CCN(c3nc(N4CCC(N5CCN(C6CC6)CC5)CC4)nc(-c4c(C)ccc5cnn(C)c45)c3C#N)C2)C1` [Compound I-216, 4-(2-acryloyl-2,6-diazaspiro[3.4]octan-6-yl)-2-(4-(4-cyclopropylpiperazin-1-yl)piperidin-1-yl)-6-(1,6-dimethyl-1H-indazol-7-yl)pyrimidine-5-carbonitrile], the Binding % entry is listed as “++ (++ indicates binding activity from 50 to 85%)”.

With `C=CC(=O)N1CC2(CCN(c3nc(N4CCC(N5CCN(C6CC6)CC5)CC4)nc(-c4c(C)ccc5[nH]ncc45)c3C#N)C2)C1` [Compound I-217, 4-(2-acryloyl-2,6-diazaspiro[3.4]octan-6-yl)-2-(4-(4-cyclopropylpiperazin-1-yl)piperidin-1-yl)-6-(5-methyl-1H-indazol-4-yl)pyrimidine-5-carbonitrile], the Binding % result was “++ (++ indicates binding activity from 50 to 85%)”.

In the case of `C=CC(=O)N1CC2(CCN(c3c(OCCCN(C)C)ncc(-c4c(C)ccc5[nH]ncc45)c3C#N)C2)C1` [Compound I-218, 3-(2-acryloyl-2,6-diazaspiro[3.4]octan-6-yl)-2-(3-(dimethylamino)pro-poxy)-5-(5-methyl-1H-indazol-4-yl)isonicotinonitrile], the Binding % entry is given as “++ (++ indicates binding activity from 50 to 85%)”.

`C=CC(=O)N1CC2(CCN(c3nc(OCc4ccccn4)nc(-c4c(C)ccc5[nH]ncc45)n3)C2)C1` [Compound I-219, 1-(6-(4-(5-methyl-1H-indazol-4-yl)-6-(pyridin-2-ylmethoxy)-1,3,5-triazin-2-yl)-2,6-diazaspiro[3.4]octan-2-yl)prop-2-en-1-one]: the Binding % entry was “+ (+ indicates binding activity greater than 0% and up to 50%)”.

Regarding `C=CC(=O)N1CC2(CCN(c3cnc(OCc4ccccc4)c(-c4c(C)ccc5[nH]ncc45)c3C#N)C2)C1` [Compound I-220, 5-(2-acryloyl-2,6-diazaspiro[3.4]octan-6-yl)-2-(benzyloxy)-3-(5-methyl-1H-indazol-4-yl)isonicotinonitrile], the Binding % entry is listed as “++ (++ indicates binding activity from 50 to 85%)”.

Consider `C=CC(=O)N1CC2(CCN(c3cnc(OCCc4ccccc4)c(-c4c(C)ccc5[nH]ncc45)c3C#N)C2)C1` [Compound I-221, 5-(2-acryloyl-2,6-diazaspiro[3.4]octan-6-yl)-3-(5-methyl-1H-indazol-4-yl)-2-phenethoxyisonicoti-nonitrile], for which the Binding % result is reported as “++ (++ indicates binding activity from 50 to 85%)”.

For the origin of these results see patent US12134620B2 (ARAXES PHARMA LLC, priority 2018, dated 2024).
